The values that follow come from ChEMBL document CHEMBL1201862, “PubChem BioAssay data set” (2004).

Among the test systems are SK-MEL-28; UO-31; K562; SNB-75; MOLT-4; A549; M14; SK-MEL-5; NCI-H226; DLD-1; SF-295; RXF 393; SK-OV-3; HOP-18; NCI-H23; RPMI-8226; ACHN; OVCAR-5.
Test in all cases: NCI anticancer screen, dose series, 48 h

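Cells were grown in 96-well plates and exposed to each compound for 48 hours at five concentrations; endpoints were interpolated linearly between bracketing concentrations, or set to the highest concentration if not reached. GI50 = concentration required for 50% inhibition of growth.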 Active and inactive are the calls of the source. No stated cut-off is given here; in the data, active = GI50 up to about 1.1 µM and inactive = higher.

In the case of `COc1ccc(OC2(c3cc(OC)ccc3OC)OC(=O)c3ccccc32)cc1` (centres undefined), the GI50 in the test on SK-MEL-28, in the test with UO-31, in the test on K562, in the test on SNB-75, with MOLT-4 and in the test with A549 was > 100 µM (inactive) throughout. The GI50 in the test on M14, in the test with SK-MEL-5, with NCI-H226, with DLD-1, in the test with SF-295 and with RXF 393 was > 100 µM (inactive) throughout. The GI50 in the test on SK-OV-3, in the test with HOP-18, in the test on NCI-H23, in the test on RPMI-8226, in the test on ACHN and in the test with OVCAR-5 was > 100 µM (inactive) in each case.
As for `CCCCCCCCCCCCCC(=O)OC1C(CO)OC(=O)C1O` (centres undefined), the GI50 with UO-31 was 51.8 µM (inactive); in the test with K562, 34.7 µM (inactive); with SNB-75 it was > 100 µM (inactive); in the test on MOLT-4, > 100 µM (inactive); with A549, > 100 µM (inactive); with M14, > 100 µM (inactive). Moreover, the GI50 with SK-MEL-5 is > 100 µM (inactive); in the test on DLD-1, > 100 µM (inactive); in the test on SF-295, 58.3 µM (inactive); in the test with RXF 393, > 100 µM (inactive); with SK-OV-3, > 100 µM (inactive); with HOP-18, > 100 µM (inactive). In addition, the GI50 in the test on NCI-H23, in the test with RPMI-8226, with ACHN and in the test with OVCAR-5 was > 100 µM (inactive) each time.
In the case of `O=C(COC(=O)c1cccc2c(=O)c3ccccc3[nH]c12)Nc1ccccc1`, the GI50 is 43.5 µM (inactive) in the test on SK-MEL-28; 22.2 µM (inactive) in the test on UO-31; 33.2 µM (inactive) with K562; 31.8 µM (inactive) in the test on SNB-75; 17.1 µM (inactive) with MOLT-4; 50.8 µM (inactive) in the test with A549. Also, the GI50 was 38 µM (inactive) in the test with M14; 19.8 µM (inactive) in the test with SK-MEL-5; 33.3 µM (inactive) in the test on NCI-H226; 65 µM (inactive) with DLD-1; 50.8 µM (inactive) with SF-295; 33.1 µM (inactive) in the test on RXF 393. For the same compound, the GI50 with SK-OV-3 is > 100 µM (inactive); in the test on HOP-18, > 100 µM (inactive); in the test with NCI-H23, 19.5 µM (inactive); in the test on RPMI-8226, 23.7 µM (inactive); in the test with ACHN, 41.8 µM (inactive).
Take `Cc1ccccc1NC(=O)c1cc2cc(/N=N/c3ccccc3C(=O)O)ccc2oc1=O`: the GI50 is 13.5 µM (inactive) in the test with SK-MEL-28; 20.6 µM (inactive) in the test with UO-31; 23.6 µM (inactive) with K562; 11.5 µM (inactive) in the test on SNB-75; 18.7 µM (inactive) in the test with MOLT-4; 33.4 µM (inactive) in the test on A549. In addition, the GI50 in the test with M14 was 16.7 µM (inactive); in the test with SK-MEL-5, 14.5 µM (inactive); in the test on NCI-H226, 20.8 µM (inactive); in the test on DLD-1, 16.7 µM (inactive); with SF-295, 18.5 µM (inactive); in the test with RXF 393, 17.4 µM (inactive). Besides, the GI50 with SK-OV-3 was 28.2 µM (inactive); with HOP-18 it was 15 µM (inactive); with NCI-H23, 3.11 µM (inactive); with RPMI-8226, 15.9 µM (inactive); in the test on ACHN, 33.3 µM (inactive).
With `Cn1c(=O)nc2n(-c3ccc(Cl)cc3)c(-c3ccccc3)c(-c3ccccc3)nc-2c1=O`, the GI50 is 25.5 µM (inactive) with SK-MEL-28; 18.4 µM (inactive) with UO-31; 25.6 µM (inactive) in the test with K562; 23.2 µM (inactive) in the test with SNB-75; 16.5 µM (inactive) in the test on MOLT-4; 31.1 µM (inactive) in the test on A549. Also, the GI50 in the test on M14 was 20 µM (inactive); in the test on SK-MEL-5, 20.1 µM (inactive); in the test with NCI-H226 it was 19.2 µM (inactive); with DLD-1 it was 34 µM (inactive); in the test with SF-295, 30.1 µM (inactive); with SK-OV-3 it was 40.3 µM (inactive). Moreover, the GI50 with HOP-18 is 57.9 µM (inactive); in the test with NCI-H23, 66.2 µM (inactive); with RPMI-8226, 22.1 µM (inactive); in the test on ACHN it was 19.9 µM (inactive); in the test with OVCAR-5, 66.8 µM (inactive).
Turning to `O=[N+]([O-])c1ccc2nc(/C(=N/Nc3ccccc3)C(O)c3ccc(Cl)cc3Cl)c(O)nc2c1` (centres undefined), the GI50 with UO-31 is 78.9 µM (inactive); with K562 it was 30 µM (inactive); with SNB-75, > 100 µM (inactive); in the test on MOLT-4, 84.5 µM (inactive); in the test with A549 it was > 100 µM (inactive); in the test on M14, > 100 µM (inactive). For the same compound, the GI50 with SK-MEL-5 is 21.8 µM (inactive); in the test with NCI-H226, > 100 µM (inactive); in the test with DLD-1 it was > 100 µM (inactive); in the test on SF-295, > 100 µM (inactive); in the test with RXF 393, > 100 µM (inactive); in the test with SK-OV-3, > 100 µM (inactive). Besides, the GI50 was > 100 µM (inactive) in the test with HOP-18; > 100 µM (inactive) in the test with NCI-H23; 52.4 µM (inactive) in the test on RPMI-8226; > 100 µM (inactive) in the test with ACHN; > 100 µM (inactive) in the test with OVCAR-5.
Consider `O=C(O)C1=C(C(=O)Nc2ccc(NC(=O)C3=C(C(=O)O)C4C=CC3C4)cc2)C2C=CC1C2`, for which the GI50 with SK-MEL-28 is > 100 µM (inactive); in the test with UO-31, > 100 µM (inactive); in the test on K562, 54.5 µM (inactive); in the test on SNB-75, > 100 µM (inactive); in the test on MOLT-4, > 100 µM (inactive); in the test on A549, > 100 µM (inactive). The GI50 in the test with M14, with SK-MEL-5, in the test on DLD-1, in the test with SF-295, in the test on RXF 393 and with SK-OV-3 was > 100 µM (inactive) in each case. Besides, the GI50 in the test with HOP-18, in the test on NCI-H23, in the test on RPMI-8226, with ACHN and in the test with OVCAR-5 was > 100 µM (inactive) each time.
Regarding `CC1=C(C(=O)CC(=O)C(=O)NC2C3CC4CC(C3)CC2C4)Sc2ccccc2N1` (centres undefined), the GI50 is > 100 µM (inactive) in the test on SK-MEL-28; > 60.3 µM (inactive) with UO-31; 84.3 µM (inactive) in the test with K562; > 100 µM (inactive) in the test on SNB-75; 4.43 µM (inactive) in the test on MOLT-4; > 100 µM (inactive) with A549. The GI50 was > 100 µM (inactive) in the test with M14; > 83.6 µM (inactive) with SK-MEL-5; > 100 µM (inactive) in the test with DLD-1; > 100 µM (inactive) in the test on SF-295; > 100 µM (inactive) in the test with RXF 393; > 31.6 µM (inactive) with SK-OV-3. Also, the GI50 with HOP-18 is 86.1 µM (inactive); in the test on NCI-H23, > 100 µM (inactive); in the test with RPMI-8226, 74.6 µM (inactive); in the test with ACHN it was > 100 µM (inactive); with OVCAR-5, > 100 µM (inactive).
As to `COc1cc(C2c3cc4c(cc3[C@@H](OCCN)[C@H]3COC(=O)C23)OCO4)cc(OC)c1O` (some centres undefined), the GI50 with SK-MEL-28 was 0.518 µM (active); in the test with UO-31 it was 4.09 µM (inactive); with K562 it was 0.181 µM (active); in the test on SNB-75, 0.238 µM (active); in the test with MOLT-4, < 0.01 µM (active); in the test on A549 it was 0.0518 µM (active). In addition, the GI50 with M14 was 0.383 µM (active); with SK-MEL-5 it was 0.2 µM (active); in the test with NCI-H226, 0.0873 µM (active); in the test with DLD-1, 1.32 µM (inactive); with SF-295 it was 0.108 µM (active); with RXF 393 it was 0.44 µM (active). Moreover, the GI50 in the test with SK-OV-3 was 0.129 µM (active); with HOP-18, 1.77 µM (inactive); in the test on NCI-H23 it was 0.136 µM (active); with ACHN, 0.181 µM (active); in the test on OVCAR-5, 0.644 µM (active).
`CC(C)=CC(=O)N(C)C1C2CN3CCC(O2)C13` (centres undefined): the GI50 in the test with SK-MEL-28, with UO-31, with K562, with SNB-75, with MOLT-4 and in the test on A549 was > 100 µM (inactive) each time. Moreover, the GI50 in the test with M14, with SK-MEL-5, in the test on NCI-H226, in the test on DLD-1, with SF-295 and in the test with RXF 393 was > 100 µM (inactive) throughout. Moreover, the GI50 with SK-OV-3, in the test with HOP-18, with NCI-H23, in the test on ACHN and in the test with OVCAR-5 was > 100 µM (inactive) in each case.
For the compound `Cc1ccc(S(=O)(=O)OCC23CCC(CC2)C2CC23)cc1` (centres undefined), the GI50 was 96.6 µM (inactive) in the test on SK-MEL-28; 34.4 µM (inactive) in the test on UO-31; 39.6 µM (inactive) with K562; 3.62 µM (inactive) in the test with SNB-75; 35.4 µM (inactive) in the test on MOLT-4; 57.4 µM (inactive) with A549. Besides, the GI50 is 92 µM (inactive) in the test on M14; 24 µM (inactive) with SK-MEL-5; 61.2 µM (inactive) in the test on NCI-H226; 74.1 µM (inactive) in the test on DLD-1; 35.1 µM (inactive) with SF-295; > 100 µM (inactive) with SK-OV-3. The GI50 with HOP-18 is > 100 µM (inactive); with NCI-H23, 38.3 µM (inactive); with RPMI-8226, 25.9 µM (inactive); in the test with ACHN it was 61.7 µM (inactive); in the test with OVCAR-5, > 100 µM (inactive).
In the case of `S=C(N/N=C/c1ccco1)NC12CC3CC(CC(C3)C1)C2`, the GI50 was > 100 µM (inactive) in the test with SK-MEL-28; > 100 µM (inactive) in the test on UO-31; 43.8 µM (inactive) with K562; 83.8 µM (inactive) in the test with SNB-75; 39.4 µM (inactive) in the test on MOLT-4; > 100 µM (inactive) in the test with A549. Also, the GI50 was > 100 µM (inactive) in the test on M14; 73.8 µM (inactive) with SK-MEL-5; > 100 µM (inactive) with NCI-H226; > 100 µM (inactive) with DLD-1; > 100 µM (inactive) in the test on SF-295; > 100 µM (inactive) with RXF 393. The GI50 with SK-OV-3, with HOP-18, with NCI-H23, in the test on ACHN and with OVCAR-5 was > 100 µM (inactive) each time.
